This passage reports IC50 results from patent publication US20240317739A1, “NOVEL UREA DERIVATIVE COMPOUND AS RON INHIBITOR” (LG CHEM, LTD., priority 2021, published 2024).

One test concerns the target RON (Homo sapiens, UniProt Q04912). The test can be described thus: Evaluation of inhibitory activity against RON (TR-FRET). It counts as biochemical. The following applies: TR-FRET kinase assay, RON protein. On the procedure: In order to measure the inhibitory activity of each of the compounds of Examples against RON, the IC50 of each of the compounds was measured using a Time-Resolved Fluorescence Energy Transfer Chemistry (TR-FRET).
Specifically, the compound was prepared to a concentration of 1 mM with 100% DMSO and was diluted 10 times in a stepwise manner through 3-fold dilution. 2 ul of the compound diluted in a stepwise manner was added to a 96-well-plate containing 48 ul of a 1×kinase reaction buffer (50 mM HEPES (pH 7.4), 0.01% Tween-20, 5 mM DTT, 0.5 mM Na3VO4, 2 mM EGTA, 10 mM MgCl2).
The RON protein was diluted to a concentration of 49.3 nM with an RON storage buffer (50 mM Tris-HCl (pH 7.5), 150 mM NaCl, 0.5 mM EDTA, 0.02% Triton X-100), and then diluted again to a concentration of 0.4 nM with a 1×kinase reaction buffer. As a substrate cocktail, a RON-specific substrate mixture (40 uM ULight-labeled Poly GT, 100 nM ATP) at a concentration 2 times the final reaction concentration.
(§1) Thereafter, a 384-well-plate was prepared, and 2.5 μl of each of the diluted compounds of Examples was added to a corresponding well of experimental group wells, and 2.5 μl of a 4% DMSO solution was dispensed into high control wells and low control wells.
(§2) Thereafter, 2.5 μL of 0.4 nM RON was dispensed into the high control wells and the experimental group wells, and 2.5 μL of a 1× kinase reaction buffer was added to the low control wells, and the RON and the reaction buffer were centrifuged at room temperature for 40 seconds at 1000 RPM, and then incubated at room temperature for 20 to 30 minutes. Then, 5 uL of a substrate cocktail (2×) was dispensed into all wells, centrifuged at room temperature for 40 seconds at 1000 RPM, and then incubated at room temperature for 60 minutes. Thereafter, 5 uL of 30 mM EDTA was added to all wells to terminate the reaction, and then incubated again at room temperature for 5 minutes. Thereafter, 5 uL of a 4× phosphotyrosine antibody (Perkin Elmer) containing europium was added to all wells, and then incubated at room temperature for 60 minutes. After the incubation, the 384-well-plate was read with a Vison plate reader. At this time, the excitation wavelength was 340 nm, and the emission wavelength was 620 nm and 665 nm. The IC50 value of the compound of each Example was derived using the GraphPd Prism7 program.

The next test concerns the target cMET (Homo sapiens, UniProt P08581). The test can be described thus: Evaluation of inhibitory activity against MET (TR-FRET). It counts as biochemical. The following applies: TR-FRET kinase assay, cMET protein. The method, then:
In addition, in order to measure the enzyme activity inhibition for cMET, the evaluation was performed in the same manner as the enzyme activity inhibition measurement experiment for the RON.
Specifically, the compound was prepared to a concentration of 1 mM with 100% DMSO and was diluted 10 times in a stepwise manner through 3-fold dilution. 2 ul of the compound diluted in a stepwise manner was added to a 96-well-plate containing 48 ul of a 1× kinase reaction buffer (50 mM HEPES (pH 7.4), 0.05% BSA, 0.005% Tween-20, 1 mM DTT, 0.5 mM MnCl2, 20 mM MgCl2).
The cMET protein was diluted to a concentration of 263 nM with a cMET storage buffer (50 mM Tris-HCl (pH 7.5), 150 mM NaCl, 0.05% Brij35, 1 mM DTT, 10% Glycerol), and then diluted again to a concentration of 2 nM with a 1× kinase reaction buffer. As a substrate cocktail, a MET-specific substrate mixture (5 uM TK peptide, […]) at a concentration 2 times the final reaction concentration.
as §1
as §2, with “of 2” for “of 0.4”, “nM cMET” for “nM RON”, “of 90” for “of 30”, “The […]” for “The IC50”
(TR-FRET usually uses a lanthanide donor and a delayed reading to cut background.)

Chain of cMET (P08581 25-1390): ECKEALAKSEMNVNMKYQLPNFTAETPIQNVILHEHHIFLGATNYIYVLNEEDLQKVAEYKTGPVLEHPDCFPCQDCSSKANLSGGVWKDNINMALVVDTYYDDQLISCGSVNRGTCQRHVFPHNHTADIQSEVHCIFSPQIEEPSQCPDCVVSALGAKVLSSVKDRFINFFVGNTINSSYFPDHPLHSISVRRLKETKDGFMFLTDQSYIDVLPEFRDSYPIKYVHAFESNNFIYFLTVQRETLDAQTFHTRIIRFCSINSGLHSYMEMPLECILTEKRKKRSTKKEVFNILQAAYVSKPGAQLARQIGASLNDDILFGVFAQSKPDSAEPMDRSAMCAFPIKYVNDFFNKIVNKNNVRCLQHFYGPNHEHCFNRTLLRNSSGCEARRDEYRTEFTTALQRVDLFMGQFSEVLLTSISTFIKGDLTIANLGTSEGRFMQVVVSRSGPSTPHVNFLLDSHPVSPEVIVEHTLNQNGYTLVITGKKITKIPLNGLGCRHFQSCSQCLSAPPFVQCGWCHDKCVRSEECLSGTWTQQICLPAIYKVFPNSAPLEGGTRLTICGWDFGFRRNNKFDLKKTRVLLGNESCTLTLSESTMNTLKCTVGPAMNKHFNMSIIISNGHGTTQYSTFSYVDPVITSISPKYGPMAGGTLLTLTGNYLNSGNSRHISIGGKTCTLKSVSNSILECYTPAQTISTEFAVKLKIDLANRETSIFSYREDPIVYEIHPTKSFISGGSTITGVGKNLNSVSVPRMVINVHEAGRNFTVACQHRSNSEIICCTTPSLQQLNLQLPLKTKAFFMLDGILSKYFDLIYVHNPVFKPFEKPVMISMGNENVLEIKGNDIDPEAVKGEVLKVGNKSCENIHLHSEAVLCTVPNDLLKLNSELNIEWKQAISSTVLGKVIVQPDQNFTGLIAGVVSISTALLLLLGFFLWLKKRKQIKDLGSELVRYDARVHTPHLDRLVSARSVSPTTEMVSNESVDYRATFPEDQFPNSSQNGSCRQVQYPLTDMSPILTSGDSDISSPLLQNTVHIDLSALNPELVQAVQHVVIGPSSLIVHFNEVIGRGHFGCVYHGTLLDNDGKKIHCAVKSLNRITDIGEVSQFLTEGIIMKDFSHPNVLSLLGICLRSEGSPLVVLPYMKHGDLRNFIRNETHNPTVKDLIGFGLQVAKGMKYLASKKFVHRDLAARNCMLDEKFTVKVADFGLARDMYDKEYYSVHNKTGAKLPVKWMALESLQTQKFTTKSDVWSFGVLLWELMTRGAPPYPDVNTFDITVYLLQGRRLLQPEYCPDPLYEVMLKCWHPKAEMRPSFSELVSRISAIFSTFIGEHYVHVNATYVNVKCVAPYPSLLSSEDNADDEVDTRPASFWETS
Chain of RON (Q04912 25-1400, species assumed): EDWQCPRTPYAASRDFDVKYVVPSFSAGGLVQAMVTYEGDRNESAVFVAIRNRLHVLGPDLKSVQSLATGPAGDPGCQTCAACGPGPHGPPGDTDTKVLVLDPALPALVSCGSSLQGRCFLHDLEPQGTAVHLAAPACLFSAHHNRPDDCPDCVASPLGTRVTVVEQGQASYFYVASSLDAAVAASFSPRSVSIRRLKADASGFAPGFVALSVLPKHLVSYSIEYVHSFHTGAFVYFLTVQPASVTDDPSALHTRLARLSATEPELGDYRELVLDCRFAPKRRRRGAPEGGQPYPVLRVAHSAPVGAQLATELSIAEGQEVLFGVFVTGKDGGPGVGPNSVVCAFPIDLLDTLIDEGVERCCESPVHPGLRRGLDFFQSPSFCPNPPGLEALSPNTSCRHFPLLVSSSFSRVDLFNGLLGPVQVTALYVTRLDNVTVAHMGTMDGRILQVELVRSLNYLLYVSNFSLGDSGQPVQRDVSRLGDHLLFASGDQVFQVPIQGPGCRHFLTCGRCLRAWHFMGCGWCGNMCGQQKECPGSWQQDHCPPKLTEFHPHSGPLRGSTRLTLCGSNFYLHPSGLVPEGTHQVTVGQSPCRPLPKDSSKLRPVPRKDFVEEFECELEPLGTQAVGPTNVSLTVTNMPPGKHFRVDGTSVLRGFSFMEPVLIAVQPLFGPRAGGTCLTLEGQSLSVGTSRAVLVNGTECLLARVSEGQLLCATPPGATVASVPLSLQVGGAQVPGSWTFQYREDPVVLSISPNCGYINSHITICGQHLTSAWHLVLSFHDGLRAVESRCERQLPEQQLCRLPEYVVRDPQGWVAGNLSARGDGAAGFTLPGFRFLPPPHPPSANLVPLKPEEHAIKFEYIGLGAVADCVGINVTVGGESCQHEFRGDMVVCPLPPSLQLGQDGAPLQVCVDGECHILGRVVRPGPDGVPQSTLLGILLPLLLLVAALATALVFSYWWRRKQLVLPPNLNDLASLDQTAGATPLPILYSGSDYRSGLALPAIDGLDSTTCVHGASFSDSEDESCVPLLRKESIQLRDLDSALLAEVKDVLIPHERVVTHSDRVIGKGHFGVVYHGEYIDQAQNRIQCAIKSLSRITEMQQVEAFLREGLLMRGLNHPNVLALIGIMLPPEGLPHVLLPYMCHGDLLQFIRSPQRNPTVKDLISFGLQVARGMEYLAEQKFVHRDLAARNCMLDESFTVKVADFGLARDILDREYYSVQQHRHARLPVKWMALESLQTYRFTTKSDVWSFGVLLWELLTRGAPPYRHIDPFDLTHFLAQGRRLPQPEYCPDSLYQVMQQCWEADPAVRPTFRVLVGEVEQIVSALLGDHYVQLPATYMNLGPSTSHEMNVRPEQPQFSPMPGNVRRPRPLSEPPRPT

As to `CC(C)n1c(=O)[nH]c2nccc(Oc3ccc(NC(=O)c4cnn(-c5cc(C6=CCOCC6)ccn5)c4C(F)(F)F)cc3F)c21` [Example 32, 1-(4-(3,6-dihydro-2H-pyran-4-yl)pyridine-2-yl)-N-(3-fluoro-4-((1-isopropyl-2-oxo-2,3-dihydro-1H-imidazo[4,5-b]pyridine-7-yl)oxy)phenyl)-5-(trifluoromethyl)-1H-pyrazole-4-carboxamide], the IC50 against RON was in the range of 50 to 500 nM; on cMET it was 500 to 5000 nM.

On to `COc1ccnc(-n2ncc(C(=O)Nc3ccc(Oc4ccnc5[nH]c(=O)n(C(C)C)c45)c(F)c3)c2C(F)(F)F)c1` [Example 33, N-(3-fluoro-4-((1-isopropyl-2-oxo-2,3-dihydro-1H-imidazo[4,5-b]pyridine-7-yl)oxy)phenyl)-1-(4-methoxypyridine-2-yl)-5-(trifluoromethyl)-1H-pyrazole-4-carboxamide], for which the IC50 against RON is less than 50 nM; against cMET, 500 to 5000 nM.

On to `COc1ccc(-n2ncc(C(=O)Nc3ccc(Oc4ccnc5[nH]c(=O)n(C(C)C)c45)c(F)c3)c2C(F)(F)F)nc1` [Example 34, N-(3-fluoro-4-((1-isopropyl-2-oxo-2,3-dihydro-1H-imidazo[4,5-b]pyridine-7-yl)oxy)phenyl)-1-(5-methoxypyridine-2-yl)-5-(trifluoromethyl)-1H-pyrazole-4-carboxamide], for which the results for the IC50 on RON and against cMET were 50 to 500 nM and more than 5000 nM, respectively.

Regarding `CC(C)n1c(=O)[nH]c2nccc(Oc3ccc(NC(=O)c4cnn(-c5cccnn5)c4C(F)(F)F)cc3F)c21` [Example 35, N-(3-fluoro-4-((1-isopropyl-2-oxo-2,3-dihydro-1H-imidazo[4,5-b]pyridine-7-yl)oxy)phenyl)-1-(pyridazine-3-yl)-5-(trifluoromethyl)-1H-pyrazole-4-carboxamide], the values for the IC50 against RON and against cMET were less than 50 nM and 500 to 5000 nM, respectively.

With `Cc1cnc(-n2ncc(C(=O)Nc3ccc(Oc4ccnc5[nH]c(=O)n(C(C)C)c45)c(F)c3)c2C(F)(F)F)nc1` [Example 36, N-(3-fluoro-4-((1-isopropyl-2-oxo-2,3-dihydro-1H-imidazo[4,5-b]pyridine-7-yl)oxy)phenyl)-1-(5-methylpyrimidine-2-yl)-5-(trifluoromethyl)-1H-pyrazole-4-carboxamide], the IC50 on RON was less than 50 nM; at cMET it was 500 to 5000 nM.

As for `CCOc1cccnc1-n1ncc(C(=O)Nc2ccc(Oc3ccnc4[nH]c(=O)n(C(C)C)c34)c(F)c2)c1C(F)(F)F` [Example 37, 1-(3-ethoxypyridine-2-yl)-N-(3-fluoro-4-((1-isopropyl-2-oxo-2,3-dihydro-1H-imidazo[4,5-b]pyridine-7-yl)oxy)phenyl)-5-(trifluoromethyl)-1H-pyrazole-4-carboxamide], the IC50 at RON was in the range of 50 to 500 nM; at cMET, 500 to 5000 nM.

In the case of `CC(C)n1c(=O)[nH]c2nccc(Oc3ccc(NC(=O)c4cnn(-c5cc(F)ccn5)c4C(F)(F)F)cc3F)c21` [Example 38, N-(3-fluoro-4-((1-isopropyl-2-oxo-2,3-dihydro-1H-imidazo[4,5-b]pyridine-7-yl)oxy)phenyl)-1-(4-fluoropyridine-2-yl)-5-(trifluoromethyl)-1H-pyrazole-4-carboxamide], the IC50 on RON was less than 50 nM; against cMET it was more than 5000 nM.

For the compound `O=C(Nc1ccc(Oc2ccnc3[nH]c(=O)n(C4CCOCC4)c23)c(F)c1)c1cnn(-c2ncccc2F)c1C(F)(F)F` [Example 39, N-(3-fluoro-4-((2-oxo-1-(tetrahydro-2H-pyran-4-yl)-2,3-dihydro-1H-imidazo[4,5-b]pyridine-7-yl)oxy)phenyl)-1-(3-fluoropyridine-2-yl)-5-(trifluoromethyl)-1H-pyrazole-4-carboxamide], the IC50 against RON is less than 50 nM; on cMET it was 500 to 5000 nM.

Take `O=C(Nc1ccc(Oc2ccnc3[nH]c(=O)n(C4CCOC4)c23)c(F)c1)c1cnn(-c2ncccc2F)c1C(F)(F)F` (centres unmarked) [Example 40, N-(3-fluoro-4-((2-oxo-1-(tetrahydrofuran-3-yl)-2,3-dihydro-1H-imidazo[4,5-b]pyridine-7-yl)oxy)phenyl)-1-(3-fluoropyridine-2-yl)-5-(trifluoromethyl)-1H-pyrazole-4-carboxamide]: the figures for the IC50 at RON and against cMET were less than 50 nM and 500 to 5000 nM, respectively.

Consider `CN1CCC(n2c(=O)[nH]c3nccc(Oc4ccc(NC(=O)c5cnn(-c6ncccc6F)c5C(F)(F)F)cc4F)c32)CC1` [Example 41, N-(3-fluoro-4-((1-(1-methylpiperidine-4-yl)-2-oxo-2,3-dihydro-1H-imidazo[4,5-b]pyridine-7-yl)oxy)phenyl)-1-(3-fluoropyridine-2-yl)-5-(trifluoromethyl)-1H-pyrazole-4-carboxamide], for which the IC50 is less than 50 nM at RON and more than 5000 nM against cMET.

The term IC50 denotes the concentration at which inhibition is half-maximal. Higher therefore signals weaker potency in that assay.
